The nature of series [1]: Microsomal stability (intrinsic clearance study). As to conditions: 0.5 mg/mL protein. It counts as in vitro ADME. As to the method:
Intrinsic clearance studies are performed individually with mouse, rat and human liver microsomes at 0.5 mg/mL protein concentration. Briefly, for protein concentration 0.5 mg/mL assay, liver microsomal protein (12.5 uL), NAPDH (50 uL) and phosphate buffer (435 uL) are co-incubated (pre-incubation) in a 96-well deep well plate in an orbital incubator (10 min, 37° C.). Reactions are initiated by the addition of 2.5 uL of test item working stock solution (100 uM). Aliquots (50 uL) are withdrawn from the reaction tube at 0, 5, 10, 20 and 30 minutes and the reaction is immediately terminated by transferring to a 96 deep well plate containing 50 uL of acetonitrile. Verapamil is used as a positive control in mouse, rat and human liver microsomes. To the quenched samples internal standard is added and vortex mixed followed by centrifugation at 4000 rpm for 10 minutes and an aliquot of supernatant is taken for LC-MS/MS analysis. Samples are analyzed by a suitable fit-for-purpose multiple reaction monitoring method developed on LC-MS/MS using and API 4000 mass spectrometer to estimate the area ratio (analyte peak area/internal standard peak area).

The target of series [2] is T1, CYP2C9 (Homo sapiens, UniProt P11712).
T1 construct: premixing appropriate volumes of buffer, microsomes and substrate; from tissue
T1 sequence (P11712 whole entry): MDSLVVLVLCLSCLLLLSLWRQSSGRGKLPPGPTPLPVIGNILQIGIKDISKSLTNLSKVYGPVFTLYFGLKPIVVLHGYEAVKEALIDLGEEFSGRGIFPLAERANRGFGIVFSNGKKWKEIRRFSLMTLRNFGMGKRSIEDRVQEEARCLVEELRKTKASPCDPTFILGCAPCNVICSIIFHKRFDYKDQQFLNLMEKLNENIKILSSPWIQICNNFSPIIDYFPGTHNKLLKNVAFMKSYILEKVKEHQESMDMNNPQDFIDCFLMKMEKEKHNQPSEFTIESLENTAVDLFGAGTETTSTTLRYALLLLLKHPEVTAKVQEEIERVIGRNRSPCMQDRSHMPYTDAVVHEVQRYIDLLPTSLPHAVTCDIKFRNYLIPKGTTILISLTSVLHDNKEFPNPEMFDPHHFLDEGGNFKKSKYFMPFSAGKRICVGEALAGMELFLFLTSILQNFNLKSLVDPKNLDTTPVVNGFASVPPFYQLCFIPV
The series is described as follows: CYP inhibition, microsomes. Type of series: in vitro ADME. Conditions: metabolite 4-hydroxy diclofenac. As to the method:
(§1) For each isozyme, microsomes-buffer-substrate mixture (MBS mix) is prepared by premixing appropriate volumes of buffer, microsomes and substrate. MBS mixture (179 μL) is transferred to a 96-well reaction plate. An aliquot (1 μL) is spiked from corresponding wells of Test Item stock solution plate to reaction plate. The reaction plate is pre-incubated for 5 minutes at 37° C. Reaction is initiated by the addition of 20 μL of NADPH solution. Each experiment is performed in duplicate. Reaction plate is incubated for predetermined time at 37° C. and quenched using either 200 μL of acetonitrile (for CYP2C9, CYP2D6, CYP2C19 and CYP3A4) or 200 μL of a mixture of 70:30 1% formic acid:acetonitrile (for CYP1A2).

The target of series [3] is T2, CYP2D6 (Homo sapiens, UniProt P10635).
T2 construct: premixing appropriate volumes of buffer, microsomes and substrate; from tissue
T2 sequence (P10635 whole entry): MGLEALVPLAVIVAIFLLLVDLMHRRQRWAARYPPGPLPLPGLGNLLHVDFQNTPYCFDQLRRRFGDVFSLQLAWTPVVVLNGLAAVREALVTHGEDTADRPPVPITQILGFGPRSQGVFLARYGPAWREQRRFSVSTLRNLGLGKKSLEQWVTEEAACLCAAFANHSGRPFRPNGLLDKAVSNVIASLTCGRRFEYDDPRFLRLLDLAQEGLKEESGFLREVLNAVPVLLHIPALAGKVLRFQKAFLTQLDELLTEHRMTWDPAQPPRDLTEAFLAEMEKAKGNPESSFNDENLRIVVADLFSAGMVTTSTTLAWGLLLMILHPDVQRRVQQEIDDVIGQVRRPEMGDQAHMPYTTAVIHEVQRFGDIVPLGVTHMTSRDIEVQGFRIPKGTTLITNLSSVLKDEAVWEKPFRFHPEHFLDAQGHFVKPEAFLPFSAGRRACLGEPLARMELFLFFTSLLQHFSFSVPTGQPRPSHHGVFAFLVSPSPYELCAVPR
The series is described as follows: CYP inhibition, microsomes. Type of series: in vitro ADME. Conditions: metabolite dextrorphan, class symbols. The procedure:
as §1

Series [4] deals with T3, CYP2C19 (Homo sapiens, UniProt P33261).
T3 construct: premixing appropriate volumes of buffer, microsomes and substrate; from tissue
T3 sequence (P33261 whole entry): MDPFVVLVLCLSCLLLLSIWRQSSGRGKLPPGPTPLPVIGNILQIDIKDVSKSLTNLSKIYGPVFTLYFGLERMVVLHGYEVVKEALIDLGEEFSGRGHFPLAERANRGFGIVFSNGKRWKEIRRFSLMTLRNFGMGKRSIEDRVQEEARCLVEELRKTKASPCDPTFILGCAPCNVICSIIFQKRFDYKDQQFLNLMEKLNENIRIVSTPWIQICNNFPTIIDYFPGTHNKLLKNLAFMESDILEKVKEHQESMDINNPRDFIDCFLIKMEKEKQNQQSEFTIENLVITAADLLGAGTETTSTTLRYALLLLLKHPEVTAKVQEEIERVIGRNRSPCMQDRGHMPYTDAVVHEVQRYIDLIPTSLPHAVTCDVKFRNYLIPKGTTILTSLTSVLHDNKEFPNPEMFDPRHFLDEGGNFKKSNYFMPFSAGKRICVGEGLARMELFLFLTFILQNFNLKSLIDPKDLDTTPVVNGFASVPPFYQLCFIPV
The series is described as follows: CYP inhibition, microsomes. Conditions: metabolite 4′-hydroxy mephenytoin, class symbols. Type of series: in vitro ADME. As to the method: as §1

Series [5] has as its target T4, CYP1A2 (Homo sapiens, UniProt P05177).
T4 construct: premixing appropriate volumes of buffer, microsomes and substrate; from tissue
T4 sequence (P05177 1-516): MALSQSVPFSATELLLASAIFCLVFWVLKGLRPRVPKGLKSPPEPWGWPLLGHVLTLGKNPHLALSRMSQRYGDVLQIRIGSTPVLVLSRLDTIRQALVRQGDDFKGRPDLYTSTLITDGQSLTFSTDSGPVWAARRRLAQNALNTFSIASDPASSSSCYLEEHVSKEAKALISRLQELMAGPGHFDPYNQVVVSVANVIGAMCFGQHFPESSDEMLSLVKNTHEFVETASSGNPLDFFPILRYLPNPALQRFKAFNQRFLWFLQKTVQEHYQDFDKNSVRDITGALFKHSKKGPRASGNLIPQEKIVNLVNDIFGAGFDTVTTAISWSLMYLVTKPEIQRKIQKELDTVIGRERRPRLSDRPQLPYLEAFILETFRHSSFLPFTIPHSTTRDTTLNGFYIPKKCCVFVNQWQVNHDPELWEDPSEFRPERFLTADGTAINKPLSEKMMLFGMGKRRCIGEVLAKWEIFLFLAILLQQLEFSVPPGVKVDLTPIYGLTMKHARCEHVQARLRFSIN
In words: CYP inhibition, microsomes. It counts as in vitro ADME. Conditions: metabolite acetaminophen. The procedure:
as §1

For series [6], the target named is T5, CYP3A4 (Homo sapiens, UniProt P08684).
T5 construct: premixing appropriate volumes of buffer, microsomes and substrate; from tissue
T5 sequence (P08684 whole entry): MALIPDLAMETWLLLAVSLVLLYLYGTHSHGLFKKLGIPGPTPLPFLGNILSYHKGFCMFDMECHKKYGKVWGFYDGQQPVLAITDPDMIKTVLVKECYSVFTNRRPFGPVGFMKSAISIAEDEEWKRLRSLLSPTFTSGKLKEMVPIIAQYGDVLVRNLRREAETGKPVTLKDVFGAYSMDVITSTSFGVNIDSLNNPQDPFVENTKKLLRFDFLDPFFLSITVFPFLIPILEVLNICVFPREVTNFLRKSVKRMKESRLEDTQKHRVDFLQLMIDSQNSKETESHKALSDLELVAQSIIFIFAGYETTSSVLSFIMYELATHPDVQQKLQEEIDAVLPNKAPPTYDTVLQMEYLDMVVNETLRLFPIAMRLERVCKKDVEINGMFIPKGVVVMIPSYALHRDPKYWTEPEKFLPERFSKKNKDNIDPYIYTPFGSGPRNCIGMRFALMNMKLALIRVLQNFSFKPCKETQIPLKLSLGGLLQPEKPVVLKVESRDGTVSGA
In words: CYP inhibition, microsomes. It counts as in vitro ADME. As to the method:
as §1

Series [7] concerns the target T6, hERG (Homo sapiens, UniProt Q12809).
T6 construct: expressed in transfected cells
In words: hERG inhibition, IKr current, patch clamp in HEK cells stably transfected with the hERG clone. It counts as cell-based. As to conditions: for inhibition at 1 µM / inhibition at 3 µM / inhibition at 10 µM / inhibition at 30 µM: human, HEK cells stably transfected with hERG; for inhibition at 1 µM: pH 7.4, 1 μM; for inhibition at 3 µM: pH 7.4, 3 μM; for inhibition at 10 µM: pH 7.4, 10 μM; for inhibition at 30 µM: pH 7.4, 30 μM; for IC50: test concentrations 1, 3, 10 and 30 μM, read-out: hERG IC 50 (IKr current). As to the method: HEK cells stably transfected with the hERG clone are maintained at 37±2° C. in a 5% CO2 incubator. The cells are initially revived and grown in DMEM/F12+GlutaMAX-I medium supplemented with 9% fetal bovine serum (FBS) and antibiotics (Penicillin 100 IU/mL Streptomycin 100 μg/mL) (complete medium). Furthermore, the cells are continuously maintained and passaged in complete media in addition to the appropriate concentration of selection antibiotic (Geneticin (G418) 200 μg/mL) (Selection media). The cells are sub cultured every 2-3 days and medium is changed with complete medium at least a day before the experiment.
The cells are harvested on the day of experiment, dislodged and suspended in sterile filtered external solution (NaCl 140 mM, KCl 4 mM, MgCl2 1 mM, CaCl2 2 mM, D-Glucose monohydrate 5 mM, Hepes/NaOH 10 mM, pH 7.4, Osmolarity:298+/−5 mOsmol).
The NPC®-1 chip of the Port-a-Patch® is filled with 5 μL of internal solution (KCl 50 mM, NaCl 10 mM, KFl 60 mM, EGTA 20 mM, Hepes/KOH 10 mM, pH 7.2, Osmolarity: 285+/−5 mOsmol) and it is screwed onto the chip holder. The Faraday cage is then fixed on the chip holder, such that the external electrode is placed near to the chip aperture. 5 μL of external solution is added to the center of the aperture so that the external electrode is also in contact with the solution.
The experiment is be initiated. […] The suction automatically attracts a cell to the aperture, resulting in an increase in the chip resistance. When the cell is captured and the set threshold for the resistance is reached, the software recognizes this increase in resistance and proceeds to the next step of the sealing procedure. 20 μL of seal enhancer solution (NaCl 80 mM, KCl 4 mM, MgCl2 10 mM, CaCl2 35 mM, Hepes (Na+salt)/HCl pH 7.4, Osmolarity: 298+/−5 mOsmol) is added 2-3 times. When the threshold resistance is reached, Patch Control automatically moves to the step of improving the seal. When the desirable resistance (Rpip) is reached, whole cell mode is attained and maintained.
Finally, hERG protocol is selected to run the experiment. The seal enhancer solution is replaced with 20 μL external solution after 2-4 rinses and then the test item is added (from lower to higher concentration) and checked for current inhibition. All the experiments are performed at ambient temperature (22-25° C.).
A schematic diagram of the Pulse protocol: Cells are stimulated every 10 seconds using the following protocol. The holding potential, sweep intervals and the depolarization/repolarization potentials are furnished in the table below.
Once the stable current is attained (at least 2-5 minutes) vehicle control is added and the current measured till the stable current is achieved. 3-5 consecutive data points from the last stable current phase are considered for further analysis. […] The system performs on-line analysis for several parameters which include functions that acquire data from traces and functions that perform calculations on the results of other functions.
A general note: Block of hERG is tested as a sign of cardiac risk.

The mark [8] stands for this setting: human liver microsomes, read-out: Microsomal stability (T½ min) Human.
The mark [9] stands for this setting: mouse liver microsomes, read-out: Microsomal stability (T½ min) Mouse.
[10] abbreviates: rat liver microsomes, read-out: Microsomal stability (T½ min) Rat.
[11] abbreviates: column CYP3A4^a (footnote a not given), class symbols, read-out: CYP IC50 CYP3A4^a.
[12] abbreviates: column CYP3A4^b (footnote b not given), class symbols, read-out: CYP IC50 CYP3A4^b.
The mark [13] stands for this setting: mean of two trials, read-out: Percent Inhibition Mean (%) (IKr current).
[14] abbreviates: read-out: Percent Inhibition Trial I (IKr current).
Where [15] appears, read: read-out: Percent Inhibition Trial II (IKr current).

SMILES strings stand for the structures. Like-named read-outs stand apart in the source and are kept apart here.

T6 sequence (Q12809 whole entry): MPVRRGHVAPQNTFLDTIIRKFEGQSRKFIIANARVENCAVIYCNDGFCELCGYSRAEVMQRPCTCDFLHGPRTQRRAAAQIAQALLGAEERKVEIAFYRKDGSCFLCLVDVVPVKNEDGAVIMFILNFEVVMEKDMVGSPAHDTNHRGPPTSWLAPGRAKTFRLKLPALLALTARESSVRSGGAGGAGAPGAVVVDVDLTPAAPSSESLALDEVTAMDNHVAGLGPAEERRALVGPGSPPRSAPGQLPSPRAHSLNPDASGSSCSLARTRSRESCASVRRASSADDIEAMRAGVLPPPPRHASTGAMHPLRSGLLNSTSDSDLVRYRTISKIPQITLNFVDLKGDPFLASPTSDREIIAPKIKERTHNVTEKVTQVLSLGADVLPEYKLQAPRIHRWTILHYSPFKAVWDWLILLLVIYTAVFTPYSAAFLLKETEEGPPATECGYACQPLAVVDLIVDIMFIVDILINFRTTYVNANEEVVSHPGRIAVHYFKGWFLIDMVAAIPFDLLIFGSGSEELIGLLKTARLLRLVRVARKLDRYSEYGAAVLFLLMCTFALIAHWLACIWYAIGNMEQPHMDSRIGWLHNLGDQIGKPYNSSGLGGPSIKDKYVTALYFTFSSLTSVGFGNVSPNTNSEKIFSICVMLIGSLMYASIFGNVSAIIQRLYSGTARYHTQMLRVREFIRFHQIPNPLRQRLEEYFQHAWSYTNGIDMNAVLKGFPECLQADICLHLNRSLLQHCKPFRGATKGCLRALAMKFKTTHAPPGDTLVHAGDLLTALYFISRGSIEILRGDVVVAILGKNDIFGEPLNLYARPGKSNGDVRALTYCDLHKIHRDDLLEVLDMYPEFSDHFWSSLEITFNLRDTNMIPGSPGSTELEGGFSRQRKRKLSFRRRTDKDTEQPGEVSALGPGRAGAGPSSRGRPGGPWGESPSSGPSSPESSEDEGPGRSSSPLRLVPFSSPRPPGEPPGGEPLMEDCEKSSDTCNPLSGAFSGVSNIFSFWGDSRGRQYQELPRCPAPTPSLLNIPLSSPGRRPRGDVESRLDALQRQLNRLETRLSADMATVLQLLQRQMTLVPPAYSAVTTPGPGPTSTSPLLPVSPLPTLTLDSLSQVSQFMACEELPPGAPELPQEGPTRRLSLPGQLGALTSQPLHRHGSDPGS

One may read the inhibition as the drop in the measured response relative to a control, in per cent. Take `Cn1c2c(c(=O)c3ccccc31)CN(Cc1ccccc1)CC2` [Compound I-1, 2-benzyl-5-methyl-1,2,3,4-tetrahydro(5H, 10H)-benzo(b)-1,6-naphthyridin-10-one]: the half-life at 0.5 uM in series [1] (setting [8]) is not above 30 min; in series [1] (setting [9]), 10 to 30 min; in series [1] (setting [10]) it was 10 to 30 min. For the same molecule, the IC50 in series [2] (class symbols) is more than 50 µM; in series [3], not above 5 µM; in series [4], 20 to 50 µM; in series [5] (class symbols), 20 to 50 µM; in series [6] (setting [11]) it was more than 50 µM; in series [6] (setting [12]) it was more than 50 µM. Also, the IC50 in series [7] was found to be 18.4 µM. The figures for the inhibition at 1 µM in series [7] (setting [13]), in series [7] (setting [14]) and in series [7] (setting [15]) were 9.04%, 9.22% and 8.85%, respectively. The inhibition at 3 µM in series [7] (setting [13]) is 20.9%; in series [7] (setting [14]) it was 20.4%; in series [7] (setting [15]), 21.4%. The inhibition at 10 µM in series [7] (setting [13]) is 37.8%; in series [7] (setting [14]), 39.6%; in series [7] (setting [15]), 35.9%. Further, the inhibition at 30 µM in series [7] (setting [13]) came out at 58.6%; in series [7] (setting [14]), 58.9%; in series [7] (setting [15]), 58.3%.

Take `CN1c2ccccc2C(O)C2CN(Cc3ccccc3)CCC21` (centres unmarked) [Ia-1]: the half-life at 0.5 uM in series [1] (setting [8]) was 10 to 30 min; in series [1] (setting [9]) it was less than 10 min; in series [1] (setting [10]), less than 10 min. In addition, the IC50 in series [3] is not above 5 µM; in series [4], not above 5 µM; in series [5] (class symbols), 5 to 20 µM; in series [6] (setting [11]) it was not above 5 µM; in series [6] (setting [12]), 20 to 50 µM; in series [7], 25.7 µM. Besides, the results for the inhibition at 1 µM in series [7] (setting [13]), in series [7] (setting [14]) and in series [7] (setting [15]) were 11.4%, 12.9% and 9.88%, respectively. Also, the inhibition at 3 µM came to 21.9% in series [7] (setting [13]), 21.3% in series [7] (setting [14]) and 22.5% in series [7] (setting [15]). Besides, the inhibition at 10 µM was determined as 28.9% in series [7] (setting [13]), 29.4% in series [7] (setting [14]) and 28.3% in series [7] (setting [15]). In addition, the inhibition at 30 µM in series [7] (setting [13]) came out at 54.4%; in series [7] (setting [14]) it was 54.8%; in series [7] (setting [15]) it was 54.1%.

With `O=c1c2c([nH]c3cc(F)c(F)cc13)CCN(Cc1ccccc1)C2` [Ib-22], the half-life at 0.5 uM is not above 30 min in series [1] (setting [8]), 10 to 30 min in series [1] (setting [9]) and 10 to 30 min in series [1] (setting [10]). In addition, the IC50 in series [2] (numeric bound) is more than 12.5 µM; in series [3], not above 5 µM; in series [4], 5 to 20 µM; in series [5] (numeric bound) it was more than 12.5 µM; in series [6] (CYP3A4^a, numeric bound, read-out: CYP IC50 CYP3A4^a), more than 12.5 µM; in series [6] (numeric bound, read-out: CYP IC50 CYP3A4^b), more than 12.5 µM. Also, the IC50 in series [7] amounted to 47.3 µM. For the same molecule, the inhibition at 1 µM in series [7] (setting [13]) was determined as 4.5%; in series [7] (setting [14]) it was 5.62%; in series [7] (setting [15]) it was 3.37%. Besides, the inhibition at 3 µM in series [7] (setting [13]) worked out at 15.3%; in series [7] (setting [14]), 16%; in series [7] (setting [15]), 14.6%. The inhibition at 10 µM in series [7] (setting [13]) is 21.4%; in series [7] (setting [14]) it was 23.8%; in series [7] (setting [15]), 19%. For the same molecule, the figures for the inhibition at 30 µM in series [7] (setting [13]), in series [7] (setting [14]) and in series [7] (setting [15]) were 30.1%, 34% and 26.2%, respectively.
